This passage reports Ki and inhibition results from patent publication US5521197A, “3-<1-alkylenearyl>-4-<1,2,3,6-tetrahydropyridinyl>-and 3-<1-alkylenearyl>-4-piperidinyl-1h-indoles: new 5-HT1F agonists” (Eli Lilly and Company, priority 1994, dated 1996).

The experiment deals with T1, 5-HT1F receptor (Homo sapiens, UniProt P30939).
T1 sequence (P30939 1-366): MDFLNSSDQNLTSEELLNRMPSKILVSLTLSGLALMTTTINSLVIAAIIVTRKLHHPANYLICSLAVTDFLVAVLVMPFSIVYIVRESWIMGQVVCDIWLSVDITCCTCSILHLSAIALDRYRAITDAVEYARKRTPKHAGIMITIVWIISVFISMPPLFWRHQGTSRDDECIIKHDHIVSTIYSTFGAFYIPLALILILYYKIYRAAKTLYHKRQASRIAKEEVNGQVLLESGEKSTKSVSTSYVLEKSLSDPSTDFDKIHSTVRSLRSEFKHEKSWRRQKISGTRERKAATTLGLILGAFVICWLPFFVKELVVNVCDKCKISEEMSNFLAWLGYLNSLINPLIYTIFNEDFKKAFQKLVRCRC
In words: Radioligand ([3H]5-HT) binding to the 5-HT1F receptor subtype. The following applies: for inhibition at 1 µM: read-out: 5-HT1F BINDING, % displacement at 1000 nM. Also noted: expressed in transfected cells; host or cells: Ltk- cells (membranes). On the procedure:
The cells were washed twice with phosphate-buffered saline, scraped from the culture dishes into 5 mL of ice-cold phosphate-buffered saline, and centrifuged at 200×g for 5 minutes at 4° C. The pellet was resuspended in 2.5 mL of ice-cold Tris buffer (20 mM Tris HCl, pH=7.4 at 23° C., 5 mM EDTA) and homogenized with a Wheaton tissue grinder. The lysate was subsequently centrifuged at 200×g for 5 minutes at 4° C. to pellet large fragments which were discarded. The supernatant was collected and centrifuged at 40,000×g for 20 minutes at 4° C. The pellet resulting from this centrifugation was washed once in ice-cold Tris wash buffer and resuspended in a final buffer containing 50 mM Tris HCl and 0.5 mM EDTA, pH=7.4 at 23° C. Membrane preparations were kept on ice and utilized within two hours for the radioligand binding assays.
Saturation studies were conducted using [^3 H]5-HT at 12 different concentrations ranging from 0.5 nM to 100 nM. […] The binding profile of drugs in competition experiments was accomplished using 10-12 concentrations of compound. […] Nonspecific binding was defined in the presence of 10 μM 5-HT. Binding was initiated by the addition of 50 μL membrane homogenates (10-20 μg). The reaction was terminated by rapid filtration through presoaked (0.5% polyethyleneimine) filters using 48R Cell Brandel Harvester (Gaithersburg, Md.). Subsequently, filters were washed for 5 seconds with ice cold buffer (50 mM Tris HCl, pH=7.4 at 4° C.), dried and placed into vials containing 2.5 mL Readi-Safe (Beckman, Fullerton, Calif.) and radioactivity was measured using a Beckman LS 5000TA liquid scintillation counter. […] Binding data was analyzed by computer-assisted nonlinear regression analysis (Accufit and Accucomp, Lunden Software, Chagrin Falls, Ohio). […] All experiments were performed in triplicate. […]

[1] abbreviates: Table I, [3H]5-HT displacement, transfected Ltk- cell membranes, 37° C., read-out: 5-HT1F BINDING Ki.

SMILES strings stand for the structures. Structures can show the parent of a compound that is named as a salt. Where two headings read alike, the source gives them in different places.

One may read the Ki as the dissociation constant of the complex between target and ligand, obtained from inhibition or displacement. Take `Fc1ccccc1CCN1CCC(c2c[nH]c3ccccc23)CC1` [Example 1, 3-<1-<2-<2-fluorophenyl>ethyl>-4-piperidinyl>-1H-indole hydrochloride]: the Ki under setting [1] stood at 29.5 nM.
Still for that read-out and setting: for `Fc1cccc(CCN2CCC(c3c[nH]c4ccccc34)CC2)c1` [Example 2, 3-<1-<2-<3-fluorophenyl>ethyl>-4-piperidinyl>-1H-indole hydrochloride] the value was 55.5 nM; for `Fc1ccc(CCN2CCC(c3c[nH]c4ccccc34)CC2)cc1` [Example 3, 3-<1-<2-<4-fluorophenyl>ethyl>-4-piperidinyl>-1H-indole hydrochloride], 31 nM; for `COc1ccc2[nH]cc(C3CCN(CCc4ccc(F)cc4)CC3)c2c1` [Example 4, 5-methoxy-3-<1-<2-<4-fluorophenyl>ethyl>-4-piperidinyl>-1H-indolehydrochloride], 35.8 nM.
The same measure, in the same setting: the result for `Clc1ccccc1CCN1CCC(c2c[nH]c3ccccc23)CC1` [Example 5, 3-<1-<2-<2-chlorophenyl>ethyl>-4-piperidinyl>-1H-indole hydrochloride] reads 35.2 nM; that for `Clc1cccc(CCN2CCC(c3c[nH]c4ccccc34)CC2)c1` [Example 6, 3-<1-<2-<3-chlorophenyl>ethyl>-4-piperidinyl>-1H-indole hydrochloride], 11.7 nM; that for `Brc1ccc(CCN2CCC(c3c[nH]c4ccccc34)CC2)cc1` [Example 7, 3-<1-<2-<4-bromophenyl>ethyl>-4-piperidinyl>-1H-indole hydrochloride], 73.3 nM.
Same read-out and setting: the result for `Cc1ccccc1CCN1CCC(c2c[nH]c3ccccc23)CC1` [Example 8, 3-<1-<2-<2-methylphenyl>ethyl>-4-piperidinyl>-1H-indole hydrochloride] reads 45 nM.
Consider `Cc1cccc(CCN2CCC(c3c[nH]c4ccccc34)CC2)c1` [Example 9, 3-<1-<2-<3-methylphenyl>ethyl>-4-piperidinyl>-1H-indole hydrochloride], for which the Ki under setting [1] worked out at 29.7 nM.
Still for that read-out and setting: for `Cc1ccc(CCN2CCC(c3c[nH]c4ccccc34)CC2)cc1` [Example 10, 3-<1-<2-<4-methylphenyl>ethyl>-4-piperidinyl>-1H-indole hydrochloride] the value was 67.6 nM; for `COc1ccccc1CCN1CCC(c2c[nH]c3ccccc23)CC1` [Example 11, 3-<1-<2-<2-methoxyphenyl>ethyl>-4-piperidinyl>-1H -indole hydrochloride], 34 nM; for `COc1cccc(CCN2CCC(c3c[nH]c4ccccc34)CC2)c1` [Example 12, 3-<1-<2-<3-methoxyphenyl>ethyl>-4-piperidinyl>-1H-indole hydrochloride], 21.1 nM.
Same read-out and setting: for `COc1ccc(CCN2CCC(c3c[nH]c4ccc(OC)cc34)CC2)cc1` [Example 13, 5-methoxy-3-<1-<2-<4-methoxyphenyl>ethyl>-4-piperidinyl>-1H-indole oxalate] the value was 128 nM; for `CCOc1ccc(CCN2CCC(c3c[nH]c4ccccc34)CC2)cc1` [Example 14, 3-<1-<2-<4-ethoxyphenyl>ethyl>-4-piperidinyl>-1H-indole hydrochloride], 185 nM.
On the same count and under the same terms, for `c1ccc(COc2ccc(CCN3CCC(c4c[nH]c5ccccc45)CC3)cc2)cc1` [Example 15, 3-<1-<2-<4-benzyloxyphenyl>ethyl>-4-piperidinyl>-1H-indole] the value was 844 nM.
Take `FC(F)(F)c1ccccc1CCN1CCC(c2c[nH]c3ccccc23)CC1` [Example 16, 3-<1-<2-<2-trifluoromethylphenyl>ethyl>-4-piperidinyl>-1H-indolehydrochloride]: the Ki under setting [1] is 64.3 nM.
As to `FC(F)(F)c1cccc(CCN2CCC(c3c[nH]c4ccccc34)CC2)c1` [Example 17, 3-<1-<2-<3-trifluoromethylphenyl>ethyl>-4-piperidinyl>-1H -indole], the Ki under setting [1] was 16.1 nM.
As for `Fc1ccc2[nH]cc(C3=CCN(CCc4ccccc4)CC3)c2c1` [Example 18, 5-fluoro-3-<1-<2-phenylethyl>-4-<1,2,3,6-tetrahydropyridinyl>>-1H-indolehydrochloride], the Ki is 48.3 nM.
Still for that read-out and setting: for `C1=C(c2c[nH]c3ccccc23)CCN(CCc2ccccc2)C1` [Example 19, 3-<1-<2-phenylethyl>-4-<1,2,3,6-tetrahydropyridinyl>>-1H-indole] the value was 81.1 nM; for `Clc1ccc2[nH]cc(C3=CCN(CCc4ccccc4)CC3)c2c1` [Example 20, 5-chloro-3-<1-<2-phenylethyl>-4-<1,2,3,6-tetrahydropyridinyl>>-1H-indolehydrochloride], 38.8 nM; for `COc1ccc2[nH]cc(C3=CCN(CCc4ccccc4)CC3)c2c1` [Example 21, 5-methoxy-3-<1-<2-phenylethyl>-4-<1,2,3,6-tetrahydropyridinyl>>-1H-indolehydrochloride], 33.9 nM.
In the case of `C1=C(c2c[nH]c3ccc(OCc4ccccc4)cc23)CCN(CCc2ccccc2)C1` [Example 22, 5-benzyloxy-3-<1-<2-phenylethyl>-4-<1,2,3,6-tetrahydropyridinyl>>-1H-indolehydrochloride], the inhibition at 1 µM was 62%.
On to `Cc1ccc2[nH]cc(C3=CCN(CCc4ccccc4)CC3)c2c1` [Example 23, 5-methyl-3-<1-<2-phenylethyl>-4-<1,2,3,6-tetrahydropyridinyl>>-1H-indolemaleate], for which affinity was put at a Ki of 28.3 nM.
Same read-out and setting: the result for `NC(=O)c1ccc2[nH]cc(C3=CCN(CCc4ccccc4)CC3)c2c1` [Example 24, 5-carboxamido-3-<1-<2-phenylethyl>-4-<1,2,3,6-tetrahydropyridinyl>>-1H-indole maleate] reads 23.6 nM.
Turning to `Fc1ccc2[nH]cc(C3CCN(CCc4ccccc4)CC3)c2c1` [Example 25, 5-fluoro-3-<1-<2-phenylethyl>-4-piperidinyl>-1H-indole hydrochloride], the Ki under setting [1] is 29.6 nM.
The same measure, in the same setting: the result for `c1ccc(CCN2CCC(c3c[nH]c4ccccc34)CC2)cc1` [Example 26, 3-<1-<2-phenylethyl>-4-piperidinyl>-1H-indole] reads 52.1 nM; that for `Clc1ccc2[nH]cc(C3CCN(CCc4ccccc4)CC3)c2c1` [Example 27, 5-chloro-3-<1-<2-phenylethyl>-4-piperidinyl>-1H-indole hydrochloride], 45.5 nM; that for `COc1ccc2[nH]cc(C3CCN(CCc4ccccc4)CC3)c2c1` [Example 28, 5-methoxy-3-<1-<2-phenylethyl>-4-piperidinyl>-1H-indole hydrochloride], 39.2 nM.
On the same count and under the same terms, for `c1ccc(CCN2CCC(c3c[nH]c4ccc(OCc5ccccc5)cc34)CC2)cc1` [Example 29, 5-benzyloxy-3-<1-<2-phenylethyl>-4-piperidinyl>-1H-indole hydrochloride] the value was 17.2 nM.
In the case of `Cc1ccc2[nH]cc(C3CCN(CCc4ccccc4)CC3)c2c1` [Example 30, 5-methyl-3-<1-<2-phenylethyl>-4-piperidinyl>-1H -indole hydrochloride], the Ki under setting [1] turned out to be 37.8 nM.
In the case of `NC(=O)c1ccc2[nH]cc(C3CCN(CCc4ccccc4)CC3)c2c1` [Example 31, 5-carboxamido-3-<1-<2-phenylethyl>-4-piperidinyl>-1H-indole hydrochloride], under setting [1], the Ki was 36.9 nM.
Still for that read-out and setting: the result for `Clc1ccc(CCN2CCC(c3c[nH]c4ccccc34)CC2)cc1` [Example 32, 3-<1-<2-<4-chlorophenyl>ethyl>-4-piperidinyl>-1H-indole hydrochloride] reads 52.1 nM.
Same read-out and setting: for `COc1ccc(CCN2CCC(c3c[nH]c4ccccc34)CC2)cc1` [Example 33, 3-<1-<2-<4-methoxyphenyl>ethyl>-4-piperidinyl>-1H-indole hydrochloride] the value was 127 nM.
As for `C1=C(c2c[nH]c3ccccc23)CCN(CCc2cccc3ccccc23)C1` [Example 34, 3-<1-<2-<1-naphthyl>ethyl>-4-<1,2,3,6-tetrahydropyridinyl>>-1H-indole], the inhibition at 1 µM was determined as 38%.
For the molecule `c1ccc2c(CCN3CCC(c4c[nH]c5ccccc45)CC3)cccc2c1` [Example 35, 3-<1-<2-<1-naphthyl>ethyl>-4-piperidinyl>-1H-indole], the Ki under setting [1] turned out to be 76.7 nM.
On the same count and under the same terms, the result for `Oc1ccc2[nH]cc(C3CCN(CCc4ccccc4)CC3)c2c1` [Example 36, 5-hydroxy-3-<1-<2-phenylethyl>-4-piperidinyl>-1H-indole hydrochloride] reads 2.5 nM.
